Data: patent US7048907B2, “Synthesis, compositions and methods for the measurement of the concentration of stable-isotope labeled compounds in life forms and life form excretory products” (BioPhysics Assay Laboratory, Inc., priority 2001, dated 2006)

Legend:
[1] = Stability of chelates to autoclaving (CM-Sephadex assay); type: physicochemical; conditions: for % of total / dpm: autoclaved 30 minutes at 121° C.
Experimental: A sample comprising 5 ml of Sm-DTPA, La-DTPA, and Eu-DTPA prepared in Examples 9, 10, and 11 were placed in 10 ml glass bottles, each capped with a grey butyl rubber cap, and the caps were crimped. Samples were autoclaved for 30 minutes at 121° C.
Five ml of each of Sm-DOTA, La-DOTA, and Eu-DOTA prepared in Examples 13, 14, and 15 were placed in 10 ml glass bottles capped with a grey butyl rubber cap and crimped. Samples were autoclaved for 30 minutes at 121° C. Samples were allowed to cool to room temperature and were assayed as described in Examples 25.

[2] = Assay of chelate on carboxymethyl (CM) Sephadex column (chelate formation, charge); type: physicochemical
[3] = Kinetics of blood depletion and urine accumulation of chelates in the rat; type: in vivo; conditions: average of three rats
Experimental: One half ml of Sm-DTPA (0.01 mg/kg), dissolved in saline (pH 7), is injected into the tail vein of three rats. Samples of blood are obtained at 10, 30 and 60 minutes following injection and analyzed for Sm-DTPA by neutron activation. The percent of starting amount of the Sm-DTPA at each time interval is presented in Table 18 (last column on right). Similarly, the accumulation of Sm-DTPA in the rat urine at two times is shown in the last column of Table 18.
One half ml of Technetium-99m-DTPA (1 millicurie), Gd-DTPA (0.05 mg/kg), and Sm-DTPA (0.01 mg/kg) are each dissolved in saline (pH 7), and are injected simultaneously into the tail vein of three rats. Samples of blood are obtained at 10, 30 and 60 minutes following injection and analyzed for ^99mTc-DTPA (gamma counting), Gd-DTPA (T1 relaxation) and Sm-DTPA (neutron activation).
One half ml of Sm-DTPA, La-DTPA and Eu-DTPA (each 0.01 mg/kg), dissolved in saline (pH 7) are injected simultaneously into the tail vein of three rats. Samples of blood are obtained at 10, 30 and 60 minutes following injection and analyzed for each element by neutron activation.
Samples of Sm-DTPA, La-DTPA and Eu-DTPA (0.5 ml; 0.01 mg/kg), each dissolved in saline (pH 7), are injected sequentially at 0, 20, and 40 minutes into the tail vein of three rats. Samples of blood are obtained at 10, 30 and 60 min following each injection and analyzed for each element by neutron activation.

[4] = Fraction 1: sample diluted 1:10 then 2-3 ml 0.01M Tris pH 7.5 (eluate)
[5] = Fraction 2: 3 ml 0.01M Tris pH 7.5
[6] = Fraction 3: column and contents (retained)
[7] = Fraction 1: 3 ml 0.01M Tris pH 7.5 before sample
[8] = Fraction 2: 1 ml sample then 3 ml 0.01M Tris pH 7.5 (eluate)
[9] = Fraction 3: further 3 ml 0.01M Tris pH 7.5
[10] = Fraction 4: column and contents (retained)

Structure (SMILES): O=C([O-])CN(CCN(CC(=O)[O-])CC(=O)[O-])CCN(CC(=O)[O-])CC(=O)[O-].[Sm+3] [Sm-DTPA]
- % eluted from CM-Sephadex column following autoclaving [1]: 100%
- % of total [1, 4]: 98 % of total
- dpm [1, 4]: 1128928 dpm
- % of total [1, 5]: 2 % of total
- dpm [1, 5]: 26387 dpm
- % of total [1, 6]: 0 % of total
- dpm [1, 6]: 1867 dpm
- % eluted from the CM-Sephadex column [2]: 98%
- % of total [2, 7]: 0 % of total
- dpm [2, 7]: 0 dpm
- % of total [2, 8]: 97 % of total
- dpm [2, 8]: 148208 dpm
- % of total [2, 9]: 1 % of total
- dpm [2, 9]: 19089 dpm
- % of total [2, 10]: 2 % of total
- dpm [2, 10]: 24257 dpm
- time within which the chelate forms ([2]; room temperature, Tris pH 7.5): ≤ 5 min
- Percent of initial injection, blood ([3]; blood 10 min, Sm-DTPA 0.01 mg/kg i.v. administered alone (Example 29)): 86% of initial injection
- Percent of initial injection, blood ([3]; blood 10 min, Sm-DTPA, La-DTPA and Eu-DTPA (each 0.01 mg/kg i.v.) simultaneously administered (Example 31)): 83% of initial injection
- Percent of initial injection, blood ([3]; blood 10 min after each injection, Sm-DTPA, La-DTPA, Eu-DTPA (0.01 mg/kg i.v.) sequentially administered at 0, 20, 40 minutes (Example 32)): 81% of initial injection
- Percent of initial injection, blood ([3]; blood 10 min after i.v. injection, ^99mTc-DTPA, Gd-DTPA and Sm-DTPA simultaneously administered (Example 30)): 88% of initial injection
- Percent of initial injection, blood ([3]; blood 30 min, Sm-DTPA 0.01 mg/kg i.v. administered alone (Example 29)): 61% of initial injection
- Percent of initial injection, blood ([3]; blood 30 min, Sm-DTPA, La-DTPA and Eu-DTPA simultaneously administered (Example 31)): 61% of initial injection
- Percent of initial injection, blood ([3]; blood 30 min, ^99mTc-DTPA, Gd-DTPA and Sm-DTPA simultaneously administered (Example 30)): 60% of initial injection
- Percent of initial injection, blood ([3]; blood 30 min after each injection, sequentially administered (Example 32)): 59% of initial injection
- Percent of initial injection, blood ([3]; blood 60 min, Sm-DTPA 0.01 mg/kg i.v. administered alone (Example 29)): 28% of initial injection
- Percent of initial injection, blood ([3]; blood 60 min, Sm-DTPA, La-DTPA and Eu-DTPA simultaneously administered (Example 31)): 34% of initial injection
- Percent of initial injection, blood ([3]; blood 60 min, ^99mTc-DTPA, Gd-DTPA and Sm-DTPA simultaneously administered (Example 30)): 33% of initial injection
- Percent of initial injection, blood ([3]; blood 60 min after each injection, sequentially administered (Example 32)): 29% of initial injection
- Percent of initial injection, urine ([3]; urine 30 min, Sm-DTPA 0.01 mg/kg i.v. administered alone (Example 29)): 24% of initial injection
- Percent of initial injection, urine ([3]; urine 30 min, Sm-DTPA, La-DTPA and Eu-DTPA simultaneously administered (Example 31)): 22% of initial injection
- Percent of initial injection, urine ([3]; urine 30 min, ^99mTc-DTPA, Gd-DTPA and Sm-DTPA simultaneously administered (Example 30)): 26% of initial injection
- Percent of initial injection, urine ([3]; urine 30 min, sequentially administered (Example 32)): 20% of initial injection
- Percent of initial injection, urine ([3]; urine 180 min, Sm-DTPA 0.01 mg/kg i.v. administered alone (Example 29)): 91% of initial injection
- Percent of initial injection, urine ([3]; urine 180 min, Sm-DTPA, La-DTPA and Eu-DTPA simultaneously administered (Example 31)): 90% of initial injection
- Percent of initial injection, urine ([3]; urine 180 min, ^99mTc-DTPA, Gd-DTPA and Sm-DTPA simultaneously administered (Example 30)): 90% of initial injection
- Percent of initial injection, urine ([3]; urine 180 min, sequentially administered (Example 32)): 89% of initial injection
